Test results: patent publication US7709471B2, “Compounds” (AstraZeneca AB, priority 2006, dated 2010)

How the values were obtained:
[1] = system: human colon tumour cell line HT29; test: Cellular Assay (phosphohistone H3 Ser10 mitotic marker, HT29); type: cell-based; conditions: HT-29, 24 h, HT29 cells, read-out: IC50 (cellular assay, phosphohistone H3)
[2] = target: recombinant Plk1 (Homo sapiens, UniProt P53350); test: In Vitro Plk1 Enzyme Assay (SPA, GST-Cdc25C phosphorylation); type: biochemical; conditions: ATP 64 nM, 90 minutes, read-out: IC50 (Plk1 enzyme inhibition)
Sequence of recombinant Plk1 (P53350 whole entry): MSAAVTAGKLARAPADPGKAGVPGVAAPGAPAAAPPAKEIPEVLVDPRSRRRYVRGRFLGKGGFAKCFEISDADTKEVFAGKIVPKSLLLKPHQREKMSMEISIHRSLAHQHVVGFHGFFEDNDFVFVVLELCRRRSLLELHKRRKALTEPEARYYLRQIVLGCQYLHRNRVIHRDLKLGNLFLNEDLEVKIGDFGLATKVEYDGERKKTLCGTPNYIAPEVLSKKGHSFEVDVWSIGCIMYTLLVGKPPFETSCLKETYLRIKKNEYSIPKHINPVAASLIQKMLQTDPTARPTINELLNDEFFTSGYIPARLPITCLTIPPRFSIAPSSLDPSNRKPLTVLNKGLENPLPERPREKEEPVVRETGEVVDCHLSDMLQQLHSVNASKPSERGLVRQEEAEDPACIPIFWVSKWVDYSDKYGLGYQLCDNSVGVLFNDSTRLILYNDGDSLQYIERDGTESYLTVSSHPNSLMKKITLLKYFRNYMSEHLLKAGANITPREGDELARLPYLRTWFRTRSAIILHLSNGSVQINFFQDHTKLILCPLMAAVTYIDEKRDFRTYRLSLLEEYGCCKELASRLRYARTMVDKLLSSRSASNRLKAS

IC50 [1] | IC50 [2] | Compound
< 30 µM | < 1000 nM | COCC(C)N1CCC(=O)N(C)c2cnc(Nc3ccc(C(=O)NC4CCN(C)CC4)cc3OC)nc21 (stereo not shown) [Example 230, 3-methoxy-4-[[6-(1-methoxypropan-2-yl)-2-methyl-3-oxo-2,6,8,10-tetrazabicyclo[5.4.0]undeca-7,9,11-trien-9-yl]amino]-N-(1-methyl-4-piperidyl)benzamide]
< 30 µM | < 300 nM | COc1cc(C(=O)NC2CCN(C)CC2)ccc1Nc1ncc2c(n1)N(Cc1ccoc1)CCC(=O)N2C [Example 231, 4-[[6-(3-furylmethyl)-2-methyl-3-oxo-2,6,8,10-tetrazabicyclo[5.4.0]undeca-8,10,12-trien-9-yl]amino]-3-methoxy-N-(1-methyl-4-piperidyl)benzamide]
< 30 µM | < 1000 nM | COc1cc(C(=O)NC2CCCCC2)ccc1Nc1ncc2c(n1)N(C1CCN(C)CC1)CCC(=O)N2C [Example 233, N-cyclohexyl-3-methoxy-4-[[2-methyl-6-(1-methyl-4-piperidyl)-3-oxo-2,6,8,10-tetrazabicyclo[5.4.0]undeca-7,9,11-trien-9-yl]amino]benzamide]
< 1 µM | < 300 nM | COc1cc(C(=O)NC2CCN(C)CC2)ccc1Nc1ncc2c(n1)N(C1CCCC1)C(C)CC(=O)N2C (stereo not shown) [Example 234, 4-[(6-cyclopentyl-2,5-dimethyl-3-oxo-2,6,8,10-tetrazabicyclo[5.4.0]undeca-8,10,12-trien-9-yl)amino]-3-methoxy-N-(1-methyl-4-piperidyl)benzamide]
< 0.3 µM | < 300 nM | COc1cc(C(=O)NC2CCN(C)CC2)ccc1Nc1ncc2c(n1)N(C1CCCC1)CC(C)(C)C(=O)N2C [Example 235, 4-[(2-cyclopentyl-4,4,6-trimethyl-5-oxo-2,6,9,11-tetrazabicyclo[5.4.0]undeca-7,9,11-trien-10-yl)amino]-3-methoxy-N-(1-methyl-4-piperidyl)benzamide]
< 0.3 µM | < 1000 nM | COc1cc(C(=O)NC2CCCN(C)C2)ccc1Nc1ncc2c(n1)N(C1CCCC1)CC(C)(C)C(=O)N2C (stereo not shown) [Example 243, 4-[(2-cyclopentyl-4,4,6-trimethyl-5-oxo-2,6,9,11-tetrazabicyclo[5.4.0]undeca-7,9,11-trien-10-yl)amino]-3-methoxy-N-(1-methyl-3-piperidyl)benzamide]
< 0.3 µM | < 1000 nM | COCCN1CCC(NC(=O)c2ccc(Nc3ncc4c(n3)N(C3CCCC3)CC(C)(C)C(=O)N4C)c(OC)c2)CC1 [Example 244, 4-[(2-cyclopentyl-4,4,6-trimethyl-5-oxo-2,6,9,11-tetrazabicyclo[5.4.0]undeca-7,9,11-trien-10-yl)amino]-3-methoxy-N-[1-(2-methoxyethyl)-4-piperidyl]benzamide]
< 0.3 µM | < 300 nM | CN1CCC(NC(=O)c2ccc(Nc3ncc4c(n3)N(C3CCCC3)CC(C)(C)C(=O)N4C)cc2)CC1 [Example 245, 4-[(2-cyclopentyl-4,4,6-trimethyl-5-oxo-2,6,9,11-tetrazabicyclo[5.4.0]undeca-7,9,11-trien-10-yl)amino]-N-(1-methyl-4-piperidyl)benzamide]
< 0.3 µM | < 300 nM | COc1cc(C(=O)NC2CCN(C)CC2)ccc1Nc1ncc2c(n1)N(C1CCCC1)CC1(CC1)C(=O)N2C [Example 246, 4-(9′-cyclopentyl-5′-methyl-6′-oxo-5′,6′,8′,9′-tetrahydrospiro[cyclopropane-1,7′-pyrimido[5,4-b][1,4]diazepine]-2′-ylamino)-N-(1-methylpiperidin-4-yl)-3-methoxybenzamide]
< 30 µM | < 100000 nM | CN1CCC(NC(=O)c2ccc(Nc3ncc4c(n3)N(c3ccccc3)CCC(=O)N4)c(Cl)c2)CC1 [Example 248, 3-chloro-N-(1-methyl-4-piperidyl)-4-[(3-oxo-6-phenyl-2,6,8,10-tetrazabicyclo[5.4.0]undeca-8,10,12-trien-9-yl)amino]benzamide]
< 30 µM | < 100000 nM | CN(C)CC(C)(C)CNC(=O)c1ccc(Nc2ncc3c(n2)N(C2CCCC2)CCC(=O)N3)cc1 [Example 253, 4-[(6-cyclopentyl-3-oxo-2,6,8,10-tetrazabicyclo[5.4.0]undeca-8,10,12-trien-9-yl)amino]-N-(3-dimethylamino-2,2-dimethyl-propyl)benzamide]
< 30 µM | < 100000 nM | O=C1CCN(C2CCCC2)c2nc(Nc3ccc(C(=O)NCCN4CCOCC4)cc3Cl)ncc2N1 [Example 257, 3-chloro-4-[(6-cyclopentyl-3-oxo-2,6,8,10-tetrazabicyclo[5.4.0]undeca-8,10,12-trien-9-yl)amino]-N-(2-morpholin-4-ylethyl)benzamide]
< 30 µM | < 100000 nM | CN1CCC(NC(=O)c2cnc(Nc3ncc4c(n3)N(C3CCCC3)CCC(=O)N4C)s2)CC1 [Example 263, 2-[(6-cyclopentyl-2-methyl-3-oxo-2,6,8,10-tetrazabicyclo[5.4.0]undeca-8,10,12-trien-9-yl)amino]-N-(1-methyl-4-piperidyl)1,3-thiazole-5-carboxamide]
< 30 µM | < 100000 nM | CN1CCC(NC(=O)c2cnc(Nc3ncc4c(n3)N(C3CCCC3)CCC(=O)N4C)o2)CC1 [Example 264, 2-[(6-cyclopentyl-2-methyl-3-oxo-2,6,8,10-tetrazabicyclo[5.4.0]undeca-8,10,12-trien-9-yl)amino]-N-(1-methyl-4-piperidyl)1,3-oxazole-5-carboxamide]
< 30 µM | < 100000 nM | CN1CCC(NC(=O)c2coc(Nc3ncc4c(n3)N(C3CCCC3)CCC(=O)N4C)n2)CC1 [Example 265, 2-[(6-cyclopentyl-2-methyl-3-oxo-2,6,8,10-tetrazabicyclo[5.4.0]undeca-8,10,12-trien-9-yl)amino]-N-(1-methyl-4-piperidyl)1,3-oxazole-4-carboxamide]
< 1 µM | < 300 nM | CN1CCC(NC(=O)c2ccc(Nc3ncc4c(n3)N(C3CCCC3)CCC(=O)N4C)nc2)CC1 [Example 269, 6-[(6-cyclopentyl-2-methyl-3-oxo-2,6,8,10-tetrazabicyclo[5.4.0]undeca-8,10,12-trien-9-yl)amino]-N-(1-methyl-4-piperidyl)pyridine-3-carboxamide]
< 30 µM | < 300 nM | CN1CCC(NC(=O)c2ccc(Nc3ncc4c(n3)N(C3CCCC3)CCC(=O)N4C)cn2)CC1 [Example 270, 5-[(6-cyclopentyl-2-methyl-3-oxo-2,6,8,10-tetrazabicyclo[5.4.0]undeca-8,10,12-trien-9-yl)amino]-N-(1-methyl-4-piperidyl)pyridine-2-carboxamide]
< 30 µM | < 1000 nM | COc1cc(C(=O)NC2CCN(C)CC2)ccc1Nc1ncc2c(n1)N(CC(=N)OC(C)CC(C)C)CCC(=O)N2C (stereo not shown) [Example 272, 3-methoxy-4-[[6-methyl-2-[(4-methylpentan-2-yloxycarbonimidoyl)methyl]-5-oxo-2,6,9,11-tetrazabicyclo[5.4.0]undeca-7,9,11-trien-10-yl]amino]-N-(1-methyl-4-piperidyl)benzamide]
< 30 µM | < 100000 nM | COc1cc(C(=O)NC2CCCCC2)ccc1Nc1ncc2c(n1)N(CCN(C)C)CCC(=O)N2C [Example 275, N-cyclohexyl-4-[[2-(2-dimethylaminoethyl)-6-methyl-5-oxo-2,6,9,11-tetrazabicyclo[5.4.0]undeca-7,9,11-trien-10-yl]amino]-3-methoxy-benzamide]
< 30 µM | < 100000 nM | COc1cc(C(=O)NC2CCCCC2)ccc1Nc1ncc2c(n1)N(CCN1CCOCC1)CCC(=O)N2C [Example 277, N-cyclohexyl-3-methoxy-4-[[6-methyl-2-(2-morpholin-4-ylethyl)-5-oxo-2,6,9,11-tetrazabicyclo[5.4.0]undeca-7,9,11-trien-10-yl]amino]benzamide]
< 1 µM | < 300 nM | CCOc1cc(C(=O)NC2CCN(C)CC2)ccc1Nc1ncc2c(n1)N(C(C)C)CCC(=O)N2C [Example 281, 3-ethoxy-4-[(6-methyl-5-oxo-2-propan-2-yl-2,6,9,11-tetrazabicyclo[5.4.0]undeca-7,9,11-trien-10-yl)amino]-N-(1-methyl-4-piperidyl)benzamide]
< 1 µM | < 1000 nM | CCOc1cc(C(=O)NC2CCN(CC)CC2)ccc1Nc1ncc2c(n1)N(C(C)C)CCC(=O)N2C [Example 282, 3-ethoxy-N-(1-ethyl-4-piperidyl)-4-[(6-methyl-5-oxo-2-propan-2-yl-2,6,9,11-tetrazabicyclo[5.4.0]undeca-7,9,11-trien-10-yl)amino]benzamide]
< 0.3 µM | < 300 nM | CCCN1CCC(NC(=O)c2ccc(Nc3ncc4c(n3)N(C3CCCC3)CCC(=O)N4C)c(OC)c2)CC1 [Example 314, 4-[(2-cyclopentyl-6-methyl-5-oxo-2,6,9,11-tetrazabicyclo[5.4.0]undeca-7,9,11-trien-10-yl)amino]-3-methoxy-N-(1-propyl-4-piperidyl)benzamide]
< 0.3 µM | < 300 nM | CN(C)CCNC(=O)c1ccc(Nc2ncc3c(n2)N(C2CCCC2)CCC(=O)N3C)c(Cl)c1 [Example 315, 3-chloro-4-[(2-cyclopentyl-6-methyl-5-oxo-2,6,9,11-tetrazabicyclo[5.4.0]undeca-7,9,11-trien-10-yl)amino]-N-(2-dimethylaminoethyl)benzamide]
< 0.3 µM | < 300 nM | CCN1CCC(NC(=O)c2ccc(Nc3ncc4c(n3)N(C3CCCC3)CCC(=O)N4C)c(Cl)c2)CC1 [Example 316, 3-chloro-4-[(2-cyclopentyl-6-methyl-5-oxo-2,6,9,11-tetrazabicyclo[5.4.0]undeca-7,9,11-trien-10-yl)amino]-N-(1-ethyl-4-piperidyl)benzamide]

Compound | IC50 [1] | IC50 [2]
CCOc1cc(C(=O)N[C@H]2C[C@H]3CCC[C@@H](C2)N3C)ccc1Nc1ncc2c(n1)N(C(C)C)CCC(=O)N2C [Example 283, 3-ethoxy-N-[(1S,5R)-9-methyl-9-azabicyclo[3.3.1]non-7-yl]-4-[(6-methyl-5-oxo-2-propan-2-yl-2,6,9,11-tetrazabicyclo[5.4.0]undeca-8,10,12-trien-10-yl)amino]benzamide] | < 0.3 µM | < 300 nM
